Results: the NIST ThermoML archive (doi:10.1016/j.jct.2009.06.020)

Assays:
[1] = refractive index (Na D-line) (dimensionless); settings: 101.33 kPa, Liquid, Standard Abbe refractometry
[2] = isobaric coefficient of expansion; settings: 298.15 K; 101.33 kPa; Liquid; Curve Fitting Density Data
[3] = for speed of sound / mass density / viscosity: 101.33 kPa, Liquid; for speed of sound: Single path-length method; for mass density: Vibrating tube method; for viscosity: Capillary tube (Ostwald / Ubbelohde) method

CCCC[N+]1(C)CCCC1.O=S(=O)([N-]S(=O)(=O)C(F)(F)F)C(F)(F)F
Settings | mass density, [3] [kg/m3] | refractive index, [1] | speed of sound, [3] [m/s] | viscosity, [3] [mPa·s]
278.15 K | 1412.36 | – | 1316 | –
283.15 K | 1407.86 | 1.42717 | 1303 | –
288.15 K | 1403.45 | 1.42573 | 1291 | –
293.15 K | 1399.02 | 1.4243 | 1280 | 98.07
298.15 K | 1394.59 | 1.42304 | 1269 | 76.92
303.15 K | 1390.2 | 1.42164 | 1258 | 61.47
308.15 K | 1385.8 | 1.42021 | 1247 | 49.94
313.15 K | 1381.42 | 1.41878 | 1236 | 41.22
318.15 K | 1377.04 | 1.41736 | 1225 | 34.32
323.15 K | 1372.69 | 1.41588 | 1214 | 28.95
328.15 K | 1368.35 | 1.41447 | 1204 | 24.68
333.15 K | 1364.02 | 1.413 | 1193 | 21.23
338.15 K | 1359.71 | 1.4116 | 1183 | 18.42
343.15 K | 1355.41 | 1.4102 | 1173 | 16.12

Settings | isobaric coefficient of expansion
[2] | 0.000633 1/K

Settings | Normal melting temperature [°C]
[3], Crystal, visual observation | -8.00

CCCCCCCCCCCCCC[P+](CCCCCC)(CCCCCC)CCCCCC.N#C[N-]C#N [tetradecyl(trihexyl)phosphonium dicyanamide]
Settings | mass density, [3] [kg/m3] | refractive index, [1] | speed of sound, [3] [m/s] | viscosity, [3] [mPa·s]
278.15 K | 910.72 | – | 1599 | –
283.15 K | 907.58 | 1.48826 | 1579 | –
288.15 K | 904.66 | 1.48667 | 1561 | –
293.15 K | 901.76 | 1.48502 | 1542 | 562.45
298.15 K | 898.86 | 1.48337 | 1526 | 418.33
303.15 K | 895.98 | 1.48174 | 1509 | 312.69
308.15 K | 893.09 | 1.48008 | 1493 | 239.97
313.15 K | 890.26 | 1.47843 | 1477 | 186.79
318.15 K | 887.46 | 1.47679 | 1462 | 145.95
323.15 K | 884.65 | 1.47516 | 1447 | 116.18
328.15 K | 881.83 | 1.47352 | 1432 | 93.8
333.15 K | 879.03 | 1.47189 | 1418 | 76.14
338.15 K | 876.22 | 1.47024 | 1404 | 62.63
343.15 K | 873.42 | 1.46848 | 1390 | 51.99

Settings | isobaric coefficient of expansion
[2] | 0.000642 1/K
